Data as given in patent US20230105725A1, “HIGHLY SAFE NON-LAMELLAR LIQUID CRYSTAL FORMING COMPOSITION” (FARNEX INCORPORATED, priority 2020, published 2023).
Like-named read-outs stand apart in the source and are kept apart here.

Assays:
[1] = Gel formation test of precursor formulations in excess aqueous medium; type: physicochemical; settings: self-organizing lipid (SOL) criterion
Protocol: The precursor formulations of Nos. 1 to 75 thus prepared were subjected to a gel formation test. An aliquot (about 100 to 300 mg) of each precursor formulation was added to an excess aqueous medium (about 0.5 to 2 mL of injectable water for Nos. 1 to 61 and 64 to 75 or phosphate buffered saline (PBS) of pH 7.4 for Nos. 62 and 63) in a vial, and mixed at room temperature (25° C.) with a spatula or a vortex mixer. As a result, all the precursor formulations of Nos. 1 to 75 produced gel compositions having colorless transparent to white turbid appearance separated in the excess aqueous medium. […]

[2] = Viscosity of the amphipathic compound; type: physicochemical
Protocol: Specifically, the amphipathic compound represented by the general formula (I) has a viscosity of preferably 15.0 Pa·s or less, more preferably 11.0 Pa·s or less, further preferably 6.0 Pa·s or less, by itself, as measured at 25° C. This viscosity can be measured using, for example, a viscosity and viscoelasticity measuring apparatus (Gemini II, Malvern Instruments Ltd.) at a temperature of 25° C.

| Structure (SMILES) | gel formation of the lipid used alone by mixing with water [1] | also measured |
| --- | --- | --- |
| CC(=CCCC(=O)OCC(C)O)CCCC(C)CCCC(C)C (stereo not shown) [C17 propylene glycol ester, mono-O-(5,9,13-trimethyltetradec-4-enoyl)propylene glycol] | do not form a gel |  |
| C/C(=C\C(=O)OCC(C)O)CCCC(C)CCCC(C)CCCC(C)C (stereo not shown) [C20 propylene glycol ester, mono-O-(3,7,11,15-tetramethylhexadec-2-enoyl)propylene glycol] | do not form a gel |  |
| CC(=CCC(=O)OCC(C)O)CCCC(C)CCCC(C)CCCC(C)C (stereo not shown) [C21 propylene glycol ester, mono-O-(4,8,12,16-tetramethylheptadec-3-enoyl)propylene glycol] | do not form a gel |  |
| CC(=CCCC(=O)OCC(CO)(CO)CO)CCCC(C)CCCC(C)CCCC(C)C (stereo not shown) [C22 pentaerythritol ester, mono-O-(5,9,13,17-tetramethyloctadec-4-enoyl)pentaerythritol] |  | Viscosity [2]: 1.7 Pa·s |
| CC(C)=CCC/C(C)=C/CC/C(C)=C/CCC(C)=CCCC(=O)OCC(O)CO (stereo not shown) [glyceryl geranylgeranylacetate, mono-O-(5,9,13,17-tetramethyloctadeca-4,8,12,16-tetraenoyl)glycerol] |  | Viscosity ([2]; at shear velocity of 92 1/s): 0.37 Pa·s |
| CC(C)CCCC(C)CCCC(C)CCCC(C)CC(=O)OCC(C)O (stereo not shown) [saturated C20 propylene glycol ester, mono-O-(3,7,11,15-tetramethylhexadecanoyl)propylene glycol] | do not form a gel |  |
| CC(C)CCCC(C)CCCC(C)CCCC(C)CCCC(=O)OCC(C)O (stereo not shown) [saturated C22 propylene glycol ester, mono-O-(5,9,13,17-tetramethyloctadecanoyl)propylene glycol] | do not form a gel |  |

More lines, main results first:

| gel formation of the lipid used alone by mixing with water [1] | Structure (SMILES) | also measured |
| --- | --- | --- |
| do not form a gel | CC(=CCCC(=O)OCCC(C)O)CCCC(C)CCCC(C)CCCC(C)C (stereo not shown) [C22 butylene glycol ester, mono-O-(5,9,13,17-tetramethyloctadec-4-enoyl)1,3-butylene glycol] |  |
| do not form a gel | CC(=CCCC(=O)OCCO)CCCC(C)CCCC(C)CCCC(C)C (stereo not shown) [C22 ethylene glycol ester, mono-O-(5,9,13,17-tetramethyloctadec-4-enoyl)ethylene glycol] |  |
| do not form a gel | CC(=CCCC(=O)OCCC(C)(C)O)CCCC(C)CCCC(C)CCCC(C)C (stereo not shown) [C22 isoprene glycol ester, mono-O-(5,9,13,17-tetramethyloctadec-4-enoyl)3-methyl-1,3-butanediol] |  |
